The values that follow come from article PMC10671849, “Synthesis and Evaluation of Marine-Inspired Compounds Result in Hybrids with Antitrypanosomal and Antileishmanial Activities” (Marine Drugs, 2023).

In assay [1] the test system is L. infantum promastigotes. Description: Anti-Leishmania activity, resazurin-based assay. It counts as cell-based. Particulars: read-out: Anti-Parasitic Activity IC50 (µM) 95% CI, L. infantum Promastigotes. On the procedure:
Promastigotes from the L. infantum strain (MHOM/MA/67/ITMAP-263) were grown in 5-mL T25 flasks in Schneider’s insect medium supplemented with 10% heat-inactivated fetal bovine serum (FBS), 200 U/mL penicillin/streptomycin, 6 µg/mL Phenol Red, and 5 mM HEPES. The cultures were maintained in an incubator at 27 °C and diluted to 2 × 10^5/mL every 5 days. For the assays, the parasites used were equivalent to late/log with 2 or 3 days of culture.
The compounds’ efficacy against L. infantum promastigotes was evaluated using a resazurin-based assay. Parasites were added to 100 µL of serial dilutions of compounds in supplemented complete medium at a cell density of 5 × 10^5/mL. As a quality control, a dose–response curve to the antileishmanial drug miltefosine was included in all the assays. The final volume of the assay was 200 µL/well. Each condition was carried out in duplicate. Following 72 h of incubation at the specific conditions for parasites, 20 µL of a 0.5 mM resazurin solution was added, and the plates were incubated for a further 4 h under the same conditions. Fluorescence was measured at 544 nm and 590 nm excitation and emission wavelengths, respectively, using a Synergy 2 Multi-Mode Reader (Biotek, Winooski, VT, USA). Results are shown as % of parasite growth inhibition compared to control (untreated parasites) and represent the average of at least three independent experiments. The effect was evaluated by the determination of the IC50 value (concentration required to inhibit growth in 50%) and was calculated by non-linear regression curves using GraphPad Prism software, version 8.1.1 for Windows (GraphPad Software, San Diego, CA, USA).
A general note: Resazurin is reduced to fluorescent resorufin, in cell work by metabolically active cells.

Assay [2] has as its system T. brucei Lister 427 bloodstream forms. Description: Anti-T. brucei activity, resazurin-based assay on bloodstream forms. It counts as cell-based, Trypanosoma brucei. The following applies: for IC50: Trypanosoma brucei, read-out: Anti-Parasitic Activity IC50 (µM) 95% CI, T. brucei. On the procedure: T. brucei Lister 427 bloodstream forms were grown in a humidified incubator at 37 °C and 5% CO2 in complete HMI-9 medium supplemented with 10% heat-inactivated fetal bovine serum (FBS) and 100 UI/mL penicillin/streptomycin. Parasite maintenance was performed in T25 ventilated flasks by subpassage at a concentration of 1 × 10^4/mL every 2 days in T25 ventilated flasks. Luciferase-expressing L. infantum (MHOM/MA/67/ITMAP-263) axenic amastigotes expressing episomal luciferase were maintained in MAA20 [31] at 37 °C in a 5% CO2 environment with subculture every 7 days at 1 × 10^6/mL in 5-mL T25 ventilated flasks.
The compounds’ efficacy against bloodstream-stage trypomastigotes was evaluated using a resazurin-based assay. Parasites were added to 100 µL of serial dilutions of compounds in supplemented complete medium at a cell density of 5 × 10^3/mL. As a quality control, a dose–response curve for the antitrypanosomal pentamidine was included in all the assays. The final volume of the assay was 200 µL/well. Each condition was carried out in duplicate. Following 72 h of incubation at the specific conditions for parasites, 20 […] of a 0.5 mM resazurin solution was added, and the plates were incubated for a further 4 h under the same conditions. Fluorescence was measured at 544 nm and 590 nm excitation and emission wavelength, respectively, using a Synergy 2 Multi-Mode Reader (Biotek, Winooski, VT, USA). The results are shown as % of parasite growth inhibition compared to control (untreated parasites) and represent the average of at least three independent experiments. The effect was evaluated by the determination of the IC50 value (concentration required to inhibit growth in 50%) and calculated by non-linear regression curves using GraphPad Prism software, version 8.1.1 for Windows (GraphPad Software, San Diego, CA, USA).

Assay [3] relates to Staphylococcus aureus ATCC 25923. Description: Antibacterial broth microdilution (CLSI M100-S25), MIC/MLC. It counts as cell-based. On the procedure: All tested compounds (9a–9d, 10a–10c, 13, 14, and eugenol (1)) were prepared in DMSO (Sigma-Aldrich, St. Louis, MO, USA) at a concentration of 10 mg/mL. The reference drugs used (voriconazole (Sigma-Aldrich, St. Louis, MO, USA) for fungi and quality control; gentamicin (Sigma-Aldrich, St. Louis, MO, USA) for bacterial and quality control) were prepared at 6.4 mg/mL. The stock solutions of the compounds were stored at –20 °C until immediately before the assays and then were diluted in fresh culture medium, RPMI-1640 medium (Biochrom AG, Berlin, Germany) buffered with 3-(N-morpholino)propanesulfonic acid (MOPS—Sigma-Aldrich, St. Louis, MO, USA) for fungi and cation-adjusted Mueller–Hinton broth (MHBII—Becton Dickinson, France) for bacteria, henceforth referred to as RPMI and MHB, respectively.
Fungal strains, including reference strains and clinical isolates, were used for the study of the antifungal activity: a yeast reference strain from American Type Culture Collection (ATCC), Candida albicans ATCC 10231; filamentous fungi reference strain Aspergillus fumigatus ATCC 240305; and a clinical isolate of dermatophytes Trichophyton rubrum FF5. Candida krusei ATCC 6258 was used as a quality control. All fungal strains were stored in Sabouraud dextrose broth (SDB—Bio-Mèrieux, Marcy L’Etoile, France) with glycerol (20%) at −80 °C and were subcultured in Sabouraud dextrose agar (SDA—Bio-Mèrieux, Marcy L’Etoile, France) for 24–72 h (yeasts and A. fumigatus) or 5–7 days (T. rubrum) before each assay to obtain optimal growth and purity conditions. Two bacteria strains were used, one Gram positive and one Gram negative: Staphylococcus aureus ATCC 25923 and Escherichia coli ATCC 25922, respectively. The bacterial strains were stored in trypticase soy broth (TSB—Biolife, Milan, Italy) with glycerol (10%) at −80 °C and subcultured in Mueller–Hinton agar (MHA—Bio-Mèrieux, Marcy L’Etoile, France) for 24 h before each assay.
For bacteria, MICs were determined by the broth microdilution method, following the recommendations of the reference method M100-S25 [29].
Similarly, as previous described, two-fold serial dilutions of each stock solution were prepared using MHB to obtain a range of test concentrations from 16 to 512 μg/mL. Bacterial cell suspensions were prepared from 24-h cultures in saline solution, and the transmittance of cell density was adjusted to 0.5 McFarland standard. Dilutions were performed using MHB to obtain cell final concentrations in the plate of 0.5–2.5 × 10^4 CFU/mL.
Plates with the prepared serial dilutions of the tested compounds were inoculated with the same volume of the bacterial suspension, and sterility, growth and DMSO controls were included in each assay. Immediately thereafter, the plates were incubated in a humid atmosphere (aerobic environment) for 18–24 h at 36 °C.
MIC values were considered the minimum concentrations that inhibited the bacterial growth by 100% compared to the growth control. The reference drug, gentamicin, was tested as a quality control, and the results were according to the norms.
A volume of 10 μL of suspension was collected from wells corresponding to the MIC and the highest following concentration and was deposited in MHA plates. The plates were incubated for 24 h at 36 °C, and the MLC was determined as the lowest concentration at which no bacterial growth was observed.
On the technique in general: Dilution methods test growth across graded concentrations, often in twofold steps.

The mark [4] stands for this setting: 72 h incubation, resazurin, highest concentration tested 40 µM, 95% CI in parentheses.
[5] abbreviates: bloodstream forms, 72 h incubation, resazurin.
Where [6] appears, read: ATCC25923, broth microdilution, 16 to 512 µg/mL, 18–24 h at 36 °C, read-out: MIC S. aureus.

SMILES strings stand for the structures. Converted amounts (≈) assume the structure as drawn. Read-outs that look alike come from different tables or passages of the source.

For orientation: IC50 means the point on the concentration scale where inhibition reaches its midpoint. The MIC is the least concentration at which growth counts as inhibited. For `C=CCc1cc(Cn2cc(C(=O)Nc3ccccc3C(N)=O)nn2)c(O)c(OC)c1` [9a, 1-(5-allyl-2-hydroxy-3-methoxybenzyl)-N-(2-carbamoylphenyl)-1H-1,2,3-triazole-4-carboxamide], in assay [1] (setting [4]), the IC50 was more than 40 µM. Moreover, in assay [2] (setting [5]), the IC50 was more than 40 µM and the “Anti-Parasitic Activity IC50 (µM) 95% CI, T. brucei” value was “did not show detectable values of IC50”. In addition, in assay [3] (setting [6]), the MIC is more than 512 µg/mL.

As for `C=CCc1cc(Cn2cc(C(=O)Nc3ccc(F)cc3C(N)=O)nn2)c(O)c(OC)c1` [9c, 1-(5-allyl-2-hydroxy-3-methoxybenzyl)-N-(2-carbamoyl-4-fluorophenyl)-1H-1,2,3-triazole-4-carboxamide], the IC50 was 7.54 µM in assay [1] (setting [4]) and 21 µM in assay [2] (setting [5]). The MIC in assay [3] (setting [6]) was 256 µg/mL (≈ 602 µM); in assay [3] (ATCC25923, second value printed after the MIC of the preceding sentence, read-out: MIC S. aureus ("the only MIC evaluated")), not above 512 µg/mL.

As for `C=CCc1cc(Cn2cc(C(=O)Nc3ccc(Cl)cc3C(N)=O)nn2)c(O)c(OC)c1` [9d, 1-(5-allyl-2-hydroxy-3-methoxybenzyl)-N-(2-carbamoyl-4-chlorophenyl)-1H-1,2,3-triazole-4-carboxamide], the IC50 is more than 40 µM in assay [1] (setting [4]) and 15.9 µM in assay [2] (setting [5]). Besides, in assay [3] (setting [6]), the MIC was more than 512 µg/mL.

With `C=CCc1cc(Cn2cc(-c3nc4ccc(OC)cc4c(=O)[nH]3)nn2)c(O)c(OC)c1` [10b, 2-(1-(5-allyl-2-hydroxy-3-methoxybenzyl)-1H-1,2,3-triazol-4-yl)-6-methoxyquinazolin-4(3H)-one], the IC50 was more than 40 µM in assay [1] (setting [4]) and 19.9 µM in assay [2] (setting [5]). In assay [3] (setting [6]), the MIC was more than 512 µg/mL.

For `C=CCc1cc(Cn2cc(-c3nc4ccccc4c(=O)[nH]3)nn2)c(O)c(OC)c1` [10a, 2-(1-(5-allyl-2-hydroxy-3-methoxybenzyl)-1H-1,2,3-triazol-4-yl)quinazolin-4(3H)-one], the IC50 in assay [1] (setting [4]) was more than 40 µM. In addition, in assay [2] (setting [5]), the IC50 is more than 40 µM and the “Anti-Parasitic Activity IC50 (µM) 95% CI, T. brucei” value is listed as “did not show detectable values of IC50”. Besides, in assay [3] (setting [6]), the MIC was more than 512 µg/mL.

For the compound `C=CCc1cc(Cn2cc(-c3nc4ccc(F)cc4c(=O)[nH]3)nn2)c(O)c(OC)c1` [10c, 2-(1-(5-allyl-2-hydroxy-3-methoxybenzyl)-1H-1,2,3-triazol-4-yl)-6-fluoroquinazolin-4(3H)-one], the IC50 in assay [1] (setting [4]) was more than 40 µM; in assay [2] (setting [5]), 11.2 µM. Further, the MIC in assay [3] (setting [6]) was more than 512 µg/mL.

In the case of `C=CCc1ccc(OCc2cn(CC(=O)Nc3ccccc3C(=O)O)nn2)c(OC)c1` [compound 13, 2-(2-(4-((4-allyl-2-methoxyphenoxy)methyl)-1H-1,2,3-triazol-1-yl)acetamido) benzoic acid], the IC50 in assay [1] (setting [4]) and in assay [2] (setting [5]) was more than 40 µM each time. In assay [3] (setting [6]), the MIC was more than 512 µg/mL.

Regarding `C=CCc1cc(Cn2cc(-c3nc4ccccc4c(=O)o3)nn2)c(O)c(OC)c1` [compound 14, 2-(1-(5-allyl-2-hydroxy-3-methoxybenzyl)-1H-1,2,3-triazol-4-yl)-4H-benzo[d][1,3]oxazin-4-one], the IC50 in assay [1] (setting [4]) is more than 40 µM; in assay [2] (setting [5]) it was 31.7 µM. Further, in assay [3] (setting [6]), the MIC is more than 512 µg/mL.

Take `C=CCc1ccc(O)c(OC)c1` [Eugenol, eugenol, reference compound]: the IC50 in assay [1] (72 h) and in assay [2] (72 h) was more than 40 µM each time. Further, in assay [3] (setting [6]), the MIC was more than 512 µg/mL.

As to `C=CCc1cc(Cn2cc(C(=O)Nc3ccc(OC)cc3C(N)=O)nn2)c(O)c(OC)c1` [9b, 1-(5-allyl-2-hydroxy-3-methoxybenzyl)-N-(2-carbamoyl-4-methoxyphenyl)-1H-1,2,3-triazole-4-carboxamide], the IC50 in assay [1] (setting [4]) is more than 40 µM; in assay [2] (setting [5]), 16.4 µM. The MIC in assay [3] (setting [6]) was more than 512 µg/mL.
